The subject of test [1] is Oocyte. Briefly: (§1) Activity at rat […] GABAA alpha-1V202Cbeta-2-gamma-2 mutant receptor expressed in xenopus oocytes assessed as GABA-elicited response by two electrode voltage clamp method relative to control. The test is classed as cell-based. A general note: Two-electrode voltage clamp is typically applied to oocytes expressing channels or transporters.
The subject of test [2] is Oocyte. Briefly: (§2) Activity at rat […] GABAA alpha-1V211Cbeta-2-gamma-2 mutant receptor expressed in xenopus oocytes assessed as GABA-elicited response by two electrode voltage clamp method relative to control. The test is classed as cell-based.
Test [3] relates to Oocyte. Briefly: Activity at rat GABAA alpha-1H101Cbeta-2-gamma-2 mutant receptor expressed in xenopus oocytes assessed as change in GABA-induced current amplitude at 1 uM after 1 min exposure to GABA by two electrode voltage clamp method. The test is classed as cell-based.
Test [4] is described as follows: (§3) Activity at rat […] GABAA alpha-1H101Cbeta-2-gamma-2 mutant receptor expressed in xenopus oocytes assessed as GABA-elicited response by two electrode voltage clamp method relative to control. The test is classed as cell-based. The settings on record: Oocyte.
Test [5] deals with Oocyte. The description is as §3. The test is classed as cell-based.
Test [6] deals with Oocyte. Briefly: (§4) Activity at rat […] GABAA alpha-1G157Cbeta-2-gamma-2 mutant receptor expressed in xenopus oocytes assessed as GABA-elicited response by two electrode voltage clamp method relative to control. The test is classed as cell-based.
The nature of test [7]: as §1. The settings on record: Oocyte. The test is classed as cell-based.
Test [8] is described as follows: as §2. The test is classed as cell-based. As to conditions: Oocyte.
Test [9] has as its system Oocyte. In words: Activity at rat GABAA alpha-1H101Cbeta-2-gamma-2 mutant receptor expressed in xenopus oocytes assessed as change in GABA-induced current amplitude at 500 nM by two electrode voltage clamp method in presence of L-cysteine. The test is classed as cell-based.
The subject of test [10] is Oocyte. Briefly: Activity at rat GABAA alpha-1H101Cbeta-2-gamma-2 mutant receptor expressed in xenopus oocytes assessed as change in GABA-induced current amplitude at 10 nM to 1 uM after 1 min exposure to GABA by two electrode voltage clamp method. The test is classed as cell-based.
The test system of test [11] is Oocyte. In words: Activity at rat GABAA alpha-1H101Cbeta-2-gamma-2 mutant receptor expressed in xenopus oocytes assessed as change in GABA-induced current amplitude first phase stimulation at 3 uM by two electrode voltage clamp method. The test is classed as cell-based.
The test system of test [12] is Oocyte. In words: Activity at rat GABAA alpha-1H101Cbeta-2-gamma-2 mutant receptor expressed in xenopus oocytes assessed as change in GABA-induced current amplitude second phase stimulation at 3 uM by two electrode voltage clamp method. The test is classed as cell-based.
The subject of test [13] is Oocyte. Briefly: Activity at rat GABAA alpha-1G157Cbeta-2-gamma-2 mutant receptor expressed in xenopus oocytes assessed as change in GABA-induced current amplitude at 1 uM after 1 min exposure to GABA by two electrode voltage clamp method. The test is classed as cell-based.
Test [14] deals with Oocyte. In words: Activity at rat GABAA alpha-1V202Cbeta-2-gamma-2 mutant receptor expressed in xenopus oocytes assessed as change in GABA-induced current amplitude at 1 uM after 1 min exposure to GABA by two electrode voltage clamp method. The test is classed as cell-based.
The subject of test [15] is Oocyte. In words: Activity at rat GABAA alpha-1V211Cbeta-2-gamma-2 mutant receptor expressed in xenopus oocytes assessed as change in GABA-induced current amplitude at 1 uM after 1 min exposure to GABA by two electrode voltage clamp method. The test is classed as cell-based.
The test system of test [16] is HEK293. In words: Displacement of [3H]Ro15-1788 from rat GABAA alpha-1H101Cbeta-2-gamma-2 mutant receptor expressed in HEK293 cells assessed as residual binding after pretreatment of L-cysteine at 30 nM after 1 hr by liquid scintillation counting. The test is classed as cell-based.
Test [17] concerns HEK293. Briefly: Displacement of [3H]Ro15-1788 from rat GABAA alpha-1H101Cbeta-2-gamma-2 mutant receptor expressed in HEK293 cells assessed as residual binding without pretreatment of L-cysteine at 30 nM after 1 hr by liquid scintillation counting. The test is classed as cell-based. On the technique in general: Displacement assays read how much labelled ligand stays bound in the presence of the test substance.

Test [18] has as its system HEK293. Briefly: Displacement of [3H]Ro15-1788 from rat GABAA alpha-1H101Cbeta-2-gamma-2 mutant receptor expressed in HEK293 cells assessed as residual binding at 10 nM after 1 hr by liquid scintillation counting. The test is classed as cell-based.
In test [19] the test system is HEK293. Briefly: Displacement of [3H]Ro15-1788 from rat GABAA alpha-1H101Cbeta-2-gamma-2 mutant receptor expressed in HEK293 cells assessed as residual binding at 10 nM after 1 hr by liquid scintillation counting in presence of Ro15-1788. The test is classed as cell-based.
The test system of test [20] is HEK293. Briefly: Displacement of [3H]Ro15-1788 from rat GABAA alpha-1H101Cbeta-2-gamma-2 mutant receptor expressed in HEK293 cells assessed as residual binding at 10 nM after 1 hr by liquid scintillation counting in presence of flunitrazepam. The test is classed as cell-based.
A short description of test [21]: Displacement of [3H]Ro15-1788 from rat GABAA alpha-1H101Cbeta-2-gamma-2 mutant receptor expressed in HEK293 cells after 1 hr assessed as residual binding by liquid scintillation counting. The test is classed as cell-based.
A short description of test [22]: as §4. The test is classed as cell-based. As to conditions: Oocyte.
Test [23] is described as follows: Displacement of [3H]Ro15-1788 from rat GABAA alpha-1-beta-2-gamma-2S receptor expressed in HEK293 cells by liquid scintillation counting. The test is classed as cell-based.
The subject of test [24] is HEK293. Briefly: Displacement of [3H]Ro15-1788 from rat GABAA alpha-1H101Cbeta-2-gamma-2 mutant receptor expressed in HEK293 cells assessed as residual binding at 100 nM after 1 hr by liquid scintillation counting. The test is classed as cell-based.
The test system of test [25] is HEK293. Briefly: Displacement of [3H]Ro15-1788 from rat GABAA alpha-1G157Cbeta-2-gamma-2 mutant receptor expressed in HEK293 cells assessed as residual binding at 100 nM after 1 hr by liquid scintillation counting. The test is classed as cell-based.
The test system of test [26] is HEK293. Briefly: Displacement of [3H]Ro15-1788 from rat GABAA alpha-1V202Cbeta-2-gamma-2 mutant receptor expressed in HEK293 cells assessed as residual binding at 100 nM after 1 hr by liquid scintillation counting. The test is classed as cell-based.
Test [27] concerns HEK293. In words: Displacement of [3H]Ro15-1788 from rat GABAA alpha-1V211Cbeta-2-gamma-2 mutant receptor expressed in HEK293 cells assessed as residual binding at 100 nM after 1 hr by liquid scintillation counting. The test is classed as cell-based.
Test [28] deals with T1, Gamma-aminobutyric acid receptor subunit alpha-1 (Homo sapiens) (UniProt P14867).
T1 sequence (whole entry): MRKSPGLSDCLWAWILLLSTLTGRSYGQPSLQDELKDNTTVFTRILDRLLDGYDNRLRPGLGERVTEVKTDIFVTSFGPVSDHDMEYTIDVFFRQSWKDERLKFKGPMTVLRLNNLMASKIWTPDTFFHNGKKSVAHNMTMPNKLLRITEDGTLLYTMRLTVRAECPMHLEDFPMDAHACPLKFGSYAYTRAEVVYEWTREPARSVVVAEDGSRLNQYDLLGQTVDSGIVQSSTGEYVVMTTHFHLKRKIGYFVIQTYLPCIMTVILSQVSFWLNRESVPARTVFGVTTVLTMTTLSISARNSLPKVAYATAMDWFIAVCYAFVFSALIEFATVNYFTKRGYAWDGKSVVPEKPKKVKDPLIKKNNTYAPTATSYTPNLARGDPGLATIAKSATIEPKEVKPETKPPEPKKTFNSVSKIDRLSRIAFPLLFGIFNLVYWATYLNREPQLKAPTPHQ
The settings on record: Rattus norvegicus; Oocyte; 1 uM.
Description: Activity at rat wild type GABAA alpha-1-beta-2-gamma-2 receptor expressed in xenopus oocytes assessed as change in GABA-induced current amplitude at 1 uM after 1 min exposure to GABA by two electrode voltage clamp method

In test [29] the target is T1, Gamma-aminobutyric acid receptor subunit alpha-1 (Homo sapiens). As to conditions: Rattus norvegicus; Oocyte; 1 uM. The source holds these as a separate data set.
Description: Activity at rat wild type GABAA alpha-1-beta-2-gamma-2 receptor expressed in xenopus oocytes assessed as change in GABA-induced current amplitude at 1 uM after 5 min exposure to GABA by two electrode voltage clamp method
Test [30] shares this target. As to conditions: Rattus norvegicus; Oocyte; 10 uM.
Description: Activity at rat wild type GABAA alpha-1-beta-2-gamma-2 receptor expressed in xenopus oocytes assessed as change in GABA-induced current amplitude at 10 uM after 5 min by two electrode voltage clamp method
Test [31] has as its system Oocyte. Briefly: Activity at rat GABAA alpha-1H101Cbeta-2-gamma-2 mutant receptor expressed in xenopus oocytes assessed as change in GABA-induced current amplitude at 10 uM after 1 min exposure to GABA by two electrode voltage clamp method. The test is classed as cell-based.

The structures appear in SMILES notation. pEC50, pKd, pKi: −log10 of the molar value. Calls of active or inactive are those of the source. The rule behind the calls is not given here.

The inhibition is the percentage by which the read-out fell short of the control. In general, pEC50 refers to the negative decadic logarithm of the EC50, by convention in mol/L. The term pKd denotes the negative decadic logarithm of the Kd, by convention in mol/L. Usually pKi stands for the Ki on a negative log10 scale, so that one unit is a factor of ten.

`CCOC(=O)c1ncn2c1CN(C)C(=O)c1cc(F)ccc1-2` [FLUMAZENIL]: the max activation is 1% in the test on Oocyte [1], 5% in the test with Oocyte [2], 22% in the test with Oocyte [5] and -2% with Oocyte [6]. Further, the inhibition with Oocyte [3] came to 22%. Besides, the pEC50 in test [4] is 7.52.
`CCOC(=O)c1ncn2c1CN(C)C(=O)c1cc(N=C=S)ccc1-2`: the pEC50 in test [7] was 6.18; in test [8], below 5.70; in [4], 7.77; in test [22], 7.47. Also, the max activation in the test on Oocyte [1] is 16%; in the test on Oocyte [2], above 140%; in the test on Oocyte [5], 90%; in the test with Oocyte [6], 30%. Further, the result in the test on Oocyte [9] was Active. For the same compound, the Activity with Oocyte [10] came to 362 nM; in the test with HEK293 [16] it was 82%; with HEK293 [17], 18%; in the test on HEK293 [18], 29%; in the test on HEK293 [19], 73%; in the test with HEK293 [20], 64%. For the same compound, the Activity turned out to be 85% in the test with HEK293 [24], 50% with HEK293 [25], 50% with HEK293 [26] and 50% in the test on HEK293 [27]. Also, the inhibition came to 53% in the test on Oocyte [11]; 47% in the test on Oocyte [12]; 88% in the test on Oocyte [13]; 71% in the test on Oocyte [14]; 5% with Oocyte [15]; 3% in [28]. Further, the inhibition in test [29] worked out at 4%; in test [30], 8%. The pKd in test [21] is 9.05. Moreover, in test [23], the negative-log Ki (pKi) was 8.00.
Consider `CCOC(=O)c1ncn2c1CN(C)C(=O)c1cc(N=[N+]=[N-])ccc1-2` [Ro-154513], for which the max activation in the test on Oocyte [1] is 9%; with Oocyte [2] it was -23%; with Oocyte [5] it was 40%; in the test on Oocyte [6] it was 36%. Further, the pEC50 was 7.36 in [8], 7.77 in [4] and 7.49 in test [22].
Turning to `Cc1ccc(-c2nc3ccc(C)cn3c2CC(=O)N(C)C)cc1` [ZOLPIDEM], the pEC50 is 5.56 in test [7], 6.47 in test [8], 5.93 in [4] and 5.58 in [22]. The max activation worked out at 369% in the test on Oocyte [1], 127% with Oocyte [2], 162% with Oocyte [5] and 427% with Oocyte [6]. In addition, the inhibition in the test with Oocyte [31] was 96%.

The values are drawn from ChEMBL document CHEMBL1156487, “Proximity-accelerated chemical coupling reaction in the benzodiazepine-binding site of gamma-aminobutyric acid type A receptors: superposition of different allosteric modulators” (J Biol Chem, 2007).
